Results on two compounds are retold here after patent EP2695950A1, “Markers for responsiveness to an inhibitor of the fibroblast growth factor receptor” (Blackfield AG, priority 2012, dated 2014).

Test [1] concerns Tumors derived from NIH3T3 cells expressing EML4-Alk. Description: Xenograft mouse model, tumor volume. The class given is in vivo, mice. As to conditions: Figure 6; EML4-Alk (positive control).
The subject of test [2] is Tumors derived from NIH3T3 cells expressing two different splice variants of FGFR1 plus Myc. Description: Xenograft mouse model, tumor volume. The test is classed as in vivo, mice. The protocol: (§1) All animal procedures were approved by the local animal protection committee and the local authorities. Xenograft-experiments were performed in 10 to 15 week old male athymic NMRI-nude-mice (Janvier, Europe). Mice were hold in a 12 hour light-dark-cycle. They got water and standard food ad libitium.
(§2) NIH3T3-cells transduced with empty Vector (puro), empty Vector (puro+zeo), KRAS G12V, FGFR1-α, FGFR1-β, FGFR1-β + cMyc were cultured as described before. For implantation they were resuspended in plain RPMI in a concentration of 50*10^6 cells/ml. 5*10^6 cells were injected subcutaneously in mice, under 2.5% Isolflurane-anaesthesia. Tumorgrowth was monitored every 2nd day by calimetric measurement. Tumorvolumes were calculated by V= […].
(§3) Therapy was started when tumors reached a size of 100mm^3. They were treated daily by oral gavage either with 10mg/kg NVP-BGJ 398 (Novartis) dissolved in vehicle (PEG300, 5%Glucose; 2:1) or with the vehicle-detergent alone. After 8 (KRas), 12 (FGFR1-α and FGFR1-β + cMyc), days of therapy mice were sacrificed by intraperitoneal injection of Ketamin/Xylazine (300/60 mg/kg) and tumors were resected and fixed in 4% formaldehyde for histology.

Test [3] concerns Tumors derived from NIH3T3 cells expressing KRas G12V. Description: Xenograft mouse model, tumor volume. The test is classed as in vivo, mice. As to conditions: Figure 3; KRas G12V (positive control); 10mg/kg daily by oral gavage. How it is done:
as §1, §2, §3

The subject of test [4] is Tumors derived from NIH3T3 cells expressing only FGFR1. Description: Xenograft mouse model, tumor volume. The class given is in vivo, mice. The protocol:
as §1, §2, §3

Test [5] concerns H1581 cell line. As to conditions: Figure 12; different concentrations. How it is done:
(§4) All compounds were purchased from commercial suppliers, dissolved in DMSO, and stored at - 20°C. Cells were plated into sterile 96-- - well microtiter plates using a multichannel pipette and cultured overnight. Compounds were then added in serial dilutions. Cellular viability was determined after 96 hours of treatment by measuring cellular ATP content using the CellTiter-- Glo Assay (Promega). Plates were measured on a Mithras LB 940 Plate Reader (Berthold Technologies). GI50 values were determined using the following R package (Frommolt P, Thomas RK, 2008, Standardized high-- - throughput evaluation of cell-- - based compound screens. BMC Bioinformatics. 9:475)

Test [6] deals with H1581 cell line with Myc downregulated (shMyc). The note with it: Figure 12, different concentrations. The protocol:
as §4

Test [7] has as its system FGFR1-amplified and FGFR1 non-amplified cell lines.
[8] abbreviates: Figure 3, FGFR1 plus Myc, 10mg/kg daily by oral gavage.

Read-outs that look alike come from different tables or passages of the source.

Turning to `CCN1CCN(c2ccc(Nc3cc(N(C)C(=O)Nc4c(Cl)c(OC)cc(OC)c4Cl)ncn3)cc2)CC1` [BGJ398], the tumor volume entry in test [1] was “increase in tumor volume”; in test [2] (setting [8]), “strong reduction of tumor volume”; in test [2] (Figure 5, tumor with FGFR1 and c-myc expression, treated mouse) it was “completely disappeared after ten days of treatment”; in test [4] (Figure 5, tumor expressing only FGFR1, treated mouse) it was “did not shrink and even little grew”; in test [4] (Figure 6, two different splice variants of FGFR1) it was “stable disease under treatment”. Besides, the tumor disappearance result in test [2] (setting [8]) is “disappeared within ten days of treatment”. Further, the tumor size entry in test [3] is “strong tumor growth”; in test [4] (Figure 3, only FGFR1, 10mg/kg daily by oral gavage) it was “stable disease”.

With `CCN(CC)CCCCNc1ncc2cc(-c3cc(OC)cc(OC)c3)c(NC(=O)NC(C)(C)C)nc2n1` [PD173074], the entries for the “response to FGFR inhibition” value in test [5] and in test [6] were “highly sensitive/responsive” and “less response”, respectively. The IC50 values result in test [7] (Figure 8, cell lines expressing high amounts of FGFR and Myc) is recorded as “lower IC50 values”; in test [7] (Figure 9, cell lines H1581 and A427, high FGFR, higher FGFR1β/FGFR1α ratio, high Myc expression), “lower IC50 values”.
